The source of these data is DBAASP.

Holding throughout (experiment): ≥ marks a high value that may be exact or a test limit, other limits are often not marked, values filed in µg/mL are converted to µM
Test [1] relates to Acinetobacter baumannii ATCC 19606.
Test [2] relates to Enterobacter cloacae ATCC 49141.
Test [3] deals with Enterococcus faecalis ATCC 19433.
In test [4] the test system is Escherichia coli ATCC 25922.
The test system of test [5] is Escherichia coli D21.
The test system of test [6] is Pseudomonas aeruginosa ATCC 27853.
Test [7] deals with Staphylococcus aureus II ATCC 6538P.
Test [8] has as its system Escherichia coli IFO 3972.
Test [9] concerns Staphylococcus aureus FDA 209P.
The subject of test [10] is Acinetobacter baumannii KCTC 2508.
The subject of test [11] is Acinetobacter baumannii.
The subject of test [12] is Histophilus somni.
Test [13] concerns Mannheimia haemolytica.
The test system of test [14] is Pasteurella multocida.
Test [15] concerns Candida albicans ATCC 37092.
The subject of test [16] is Staphylococcus aureus ATCC 29213.
In test [17] the test system is Botrytis cinerea DSM Z877.
In test [18] the test system is Fusarium oxysporum DSM Z62306.
Test [19] has as its system Bacillus subtilis.
The subject of test [20] is Candida albicans.
The subject of test [21] is Cryptococcus neoformans.
For test [22], the system named is Escherichia coli.
Test [23] relates to Pseudomonas putida.
The subject of test [24] is Saccharomyces cerevisiae.
Test [25] deals with Salmonella typhimurium.
Test [26] deals with Serratia sp.
Test [27] deals with Staphylococcus aureus.
The subject of test [28] is Streptococcus mutans.
The test system of test [29] is Glaesserella parasuis ATCC 19417.
Test [30] concerns Glaesserella parasuis.
Test [31] deals with Candida albicans ATCC 2002.
Test [32] has as its system Candida albicans ATCC 90028.
The test system of test [33] is Enterococcus faecalis ATCC 29212.
Test [34] relates to Escherichia coli 117.
The subject of test [35] is Escherichia coli 37.
Test [36] concerns Klebsiella pneumoniae ATCC 700603.
Test [37] has as its system Pseudomonas aeruginosa CMCCB 1010.
Test [38] deals with Pseudomonas aeruginosa.
Test [39] deals with Staphylococcus aureus 10.
Test [40] relates to Staphylococcus aureus 37.
Test [41] deals with Staphylococcus aureus ATCC 25923.

Structures are written as SMILES. Values after ≈ are worked out from the molar mass of the structure shown. Where only a bound is given, the exact number is not on record here.

In the case of `CC(C)C[C@H](NC(=O)[C@H](Cc1cnc[nH]1)NC(=O)[C@H](Cc1cnc[nH]1)NC(=O)[C@H](CC(C)C)NC(=O)[C@H](CC(C)C)NC(=O)[C@H](Cc1cnc[nH]1)NC(=O)[C@H](Cc1cnc[nH]1)NC(=O)[C@H](CC(C)C)NC(=O)[C@H](CC(C)C)NC(=O)[C@H](Cc1cnc[nH]1)NC(=O)[C@H](Cc1cnc[nH]1)NC(=O)[C@H](CC(C)C)NC(=O)[C@H](C)NC(=O)[C@H](CC(=O)O)NC(=O)[C@@H](N)CC(=O)O)C(=O)O` [DDALHHLLHHLLHHL], the MIC in test [1] was more than 100 µM; in test [2], not below 100 µM; in test [3] it was not below 100 µM; in [4] it was more than 100 µM; in test [5], not below 100 µM; in test [6] it was 100 µM (≈ 182 µg/mL). In [7], this compound returned an MIC not below 100 µM.
Take `CC(C)C[C@H](NC(=O)[C@H](Cc1c[nH]c2ccccc12)NC(=O)[C@@H](NC(=O)[C@H](Cc1c[nH]c2ccccc12)NC(=O)[C@H](Cc1cnc[nH]1)NC(=O)[C@@H](N)Cc1c[nH]c2ccccc12)[C@@H](C)O)C(=O)O` [WHWTWL]: the MIC in test [8] and in test [9] was not below 500 µM each time.
Regarding `CC[C@H](C)[C@H](NC(=O)CNC(=O)[C@H](CC(C)C)NC(=O)[C@H](CCCN=C(N)N)NC(=O)[C@H](CCCCN)NC(=O)[C@H](Cc1ccccc1)NC(=O)[C@@H](NC(=O)[C@H](CCCCN)NC(=O)[C@H](CCCCN)NC(=O)[C@H](C)N)C(C)C)C(=O)NCC(=O)N[C@@H](CCCCN)C(=O)N[C@@H](Cc1ccccc1)C(=O)N[C@@H](CC(C)C)C(=O)N[C@@H](Cc1cnc[nH]1)C(=O)N[C@@H](CO)C(=O)N[C@@H](C)C(=O)N[C@@H](CCCCN)C(=O)N[C@@H](CCCCN)C(=O)N[C@@H](Cc1ccccc1)C(N)=O` [AKKVFKRLGIGKFLHSAKKF], the MIC in [10] and in test [11] was 6.25 µM (≈ 14.4 µg/mL) each time.
With `CC[C@H](C)[C@@H]1NC(=O)CNC(=O)[C@H](CCCCN)NC(=O)[C@H](CC(N)=O)NC(=O)[C@H](CCCN=C(N)N)NC(=O)[C@H](C(C)C)NC(=O)[C@@H](NC(=O)[C@H](CO)NC(=O)[C@@H](NC(=O)[C@@H]2CCCN2C(=O)[C@@H](N)CC(N)=O)C(C)C)CSSC[C@@H]2NC(=O)[C@H](CCCCN)NC(=O)[C@H](C(C)C)NC(=O)[C@H](C)NC(=O)[C@H](CCCN=C(N)N)NC(=O)CNC(=O)[C@H](C(C)C)NC(=O)[C@@H]3CSSC[C@H](NC1=O)C(=O)N[C@@H](C(C)C)C(=O)N1CCC[C@H]1C(=O)N[C@@H]([C@@H](C)CC)C(=O)N[C@@H](CCCN=C(N)N)C(=O)N[C@@H](CSSC[C@@H](C(=O)N[C@@H](CCCN=C(N)N)C(=O)N[C@@H](CCCCN)C(=O)N[C@@H](CCCCN)C(=O)O)NC2=O)C(=O)N1CCC[C@H]1C(=O)NCC(=O)N[C@@H](CC(N)=O)C(=O)N[C@@H](CCSC)C(=O)N[C@@H](CCCCN)C(=O)N[C@@H](CCC(N)=O)C(=O)N[C@@H]([C@@H](C)CC)C(=O)NCC(=O)N[C@@H]([C@@H](C)O)C(=O)N3` [NPVSCVRNKGICVPIRCPGNMKQIGTCVGRAVKCCRKK], the MIC came out at 1.14 µM (≈ 4.69 µg/mL) in [12], 0.753 µM (≈ 3.1 µg/mL) in test [13] and 0.558 µM (≈ 2.3 µg/mL) in test [14].
Turning to `CC(C)C[C@H](NC(=O)[C@@H]1CCCN1C(=O)[C@H](CCCN=C(N)N)NC(=O)[C@@H]1CCCN1)C(=O)N1CCC[C@H]1C(=O)N[C@@H](Cc1ccccc1)C(=O)N1CCC[C@H]1C(=O)N[C@@H](CCCN=C(N)N)C(=O)N1CCC[C@H]1C(=O)NCC(=O)O` [PRPLPFPRPG], the MIC is not below 500 µM in test [15], more than 500 µM in test [4] and more than 500 µM in test [16].
For the compound `CSCC[C@H](NC(=O)[C@@H](NC(=O)[C@@H](NC(=O)[C@H](CCCCN)NC(=O)[C@H](C)N)C(C)C)[C@@H](C)O)C(=O)N[C@H](C(=O)N[C@@H](CS)C(=O)N[C@@H](CO)C(=O)N[C@@H](C)C(=O)N[C@@H](CO)C(=O)O)[C@@H](C)O` [AKVTMTCSAS], the MIC in test [17] is not below 120 µM; in test [18] it was not below 100 µM.
With `CC[C@H](C)[C@H](NC(=O)[C@H](CO)NC(=O)[C@H](CCCCN)NC(=O)[C@H](Cc1ccccc1)NC(=O)[C@H](CCCCN)NC(=O)[C@H](CCCCN)NC(=O)[C@H](CC(C)C)NC(=O)[C@@H]1CCCN1C(=O)[C@@H](NC(=O)[C@H](CCCCN)NC(=O)[C@@H](NC(=O)[C@@H](NC(=O)[C@H](C)N)C(C)C)C(C)C)C(C)C)C(=O)N[C@@H](CCCN=C(N)N)C(=O)N[C@@H](CCC(=O)O)C(=O)O` [AVVKVPLKKFKSIRE], the MIC was 11.5 µM (≈ 20 µg/mL) in test [19]; 57.4 µM (≈ 100 µg/mL) in test [20]; 23 µM (≈ 40 µg/mL) in test [21]; 28.7 µM (≈ 50 µg/mL) in test [22]; not below 57.4 µM in [23]; 5.74 µM (≈ 10 µg/mL) in [24]. For the same compound, the MIC stood at 17.2 µM (≈ 30 µg/mL) in test [25], 28.7 µM (≈ 50 µg/mL) in [26], 28.7 µM (≈ 50 µg/mL) in test [27] and 17.2 µM (≈ 30 µg/mL) in test [28].
`C[C@H](NC(=O)[C@H](Cc1ccccc1)NC(=O)[C@H](CS)NC(=O)[C@H](Cc1c[nH]c2ccccc12)NC(=O)[C@H](CCCN=C(N)N)NC(=O)[C@@H](N)CC(N)=O)C(=O)NCC(=O)N[C@@H](CC(=O)O)C(=O)N[C@@H](CC(=O)O)C(=O)O` [NRWCFAGDD]: the MIC in test [29] worked out at 18.5 µM (≈ 20 µg/mL); in test [30], 13.1 µM (≈ 14.1 µg/mL).
Consider `CC[C@H](C)[C@H](N)C(=O)N[C@@H](CC(N)=O)C(=O)N[C@@H](CC(C)C)C(=O)N[C@@H](CCCCN)C(=O)N[C@@H](C)C(=O)N[C@H](C(=O)N[C@@H](C)C(=O)N[C@@H](C)C(=O)N[C@@H](CC(C)C)C(=O)N[C@@H](C)C(=O)N[C@@H](CCCN=C(N)N)C(=O)N[C@@H](CC(N)=O)C(=O)N[C@@H](Cc1ccc(O)cc1)C(=O)O)[C@@H](C)CC` [INLKAIAALARNY], for which the MIC in test [31] is not below 55.9 µM; in test [32] it was 14 µM (≈ 20 µg/mL); in test [33] it was 3.49 µM (≈ 5 µg/mL); in test [34], 28 µM (≈ 40 µg/mL); in test [35] it was not below 55.9 µM; in [36], 55.9 µM (≈ 80 µg/mL). Further, the MIC in test [6] was 55.9 µM (≈ 80 µg/mL); in [37], not below 55.9 µM; in test [38], 6.99 µM (≈ 10 µg/mL); in [39] it was 28 µM (≈ 40 µg/mL); in test [40], 6.99 µM (≈ 10 µg/mL); in test [41] it was 6.99 µM (≈ 10 µg/mL).

The MIC is the least concentration at which growth counts as inhibited. Read a low MIC as inhibition by little substance.
